Experimental findings from article PMC9786284, “Synthesis and Antiproliferative Effect of Halogenated Coumarin Derivatives” (Molecules, 2022) are described below.

What all share (type): cell-based
For data set [1], the system named is TPC-1 thyroid cancer cell line. Kind of data set: MTT cell viability assay. The procedure:
(§1) The cytotoxic effect of coumarins 2a–k was tested on several cancer and normal cell lines: lung cancer cell line (SK-MES-1), thyroid cancer cell lines (K-1; B-CPAP ant TPC-1), lung fibroblast (MRC-5) and thyroid normal cell line (Nthy-ori-3-1) by MTT (3-[4,5-dimethylthiazol-2-yl]-2,5 diphenyltetrazolium bromide) assay.
(§2) The papillary thyroid carcinoma (PTC)-derived cell lines (TPC-1 and B-CPAP) were kindly provided by Dr. Fusco (Medical School, University Federico II of Naples, Naples, Italy). K-1 PTC-derived cell line and non-tumorigenic thyroid Nthy-ori-3-1 cell line were purchased from Health Protection Agency Culture Collections. The PTC-derived cell lines were maintained in DMEM/F12 (Gibco-BRL. Life Technologies, Milan, Italy)] supplemented with 10% fetal bovine serum (Gibco-BRL) at 37 °C in humidified 5% CO2. SK-MES-1 and MRC-5 were purchased from American Type Culture Collection (ATCC) and were maintained in Mem-E medium, supplemented with 10% fetal bovine serum, 100 units/mL penicillin G, and 100 μg/mL streptomycin (Gibco-BRL) at 37 °C in humidified 5% CO2.
(§3) The effect of test compounds on the viability of cells was detected by MTT assay. The thyroid cells (7.5 × 10^3 cells/mL), SK-MES-1, and MRC-5 (8 × 10^4 cells/mL) were seeded into a 96-well plate and allowed to adhere for 16 h to culture plates before the addition of the compounds.
(§4) Then, compounds were added at different concentrations (0.8–100 μM), and cells were further incubated for 24 h. Cells with no treatment were used as a negative control. After incubation, cells were treated with MTT solution for 3 h at 37 °C. Then, the MTT solution was removed, and 150 µL of DMSO was added to the wells. The absorbances were measured at 570 nm using a TECAN microplate reader (Infinite 200, Tecan, Salzburg, Austria). Viability data were reported as % of control (untreated cells) for each cell line.
(Tetrazolium dyes change colour on reduction, which living cells bring about.)

For data set [2], the system named is SK-MES-1 lung cancer cell line. Kind of data set: MTT cell viability assay. As to the method:
as §1, §2, §3, §4

The nature of a further data set: MTT cell viability assay. The note with it: human, MTT, 24 h, concentration required to inhibit cell proliferation by 50%, mean ± SD. As to the method: as §1, §2, §3, §4
Data set [3] deals with B-CPAP thyroid cancer cell line. Kind of data set: MTT cell viability assay. As to the method:
as §1, §2, §3, §4

In data set [4] the test system is K-1 thyroid cancer cell line. Kind of data set: MTT cell viability assay. As to the method:
as §1, §2, §3, §4

Another data set deals with MRC-5 lung fibroblast. The experiment in a line: MTT cell viability assay. The procedure: as §1, §2, §3, §4
Data set [5] has as its system Nthy-ori-3-1 thyroid normal cell line. Kind of data set: MTT cell viability assay. The procedure: as §1, §2, §3, §4
Setting [6] is: Homo sapiens, TPC1, TPC-1, MTT, 24 h, concentration required to inhibit cell proliferation by 50%, mean ± SD, read-out: CC50.
[7] abbreviates: Homo sapiens, SK-MES-1, MTT, 24 h, concentration required to inhibit cell proliferation by 50%, mean ± SD, read-out: CC50.
Setting [8] is: Nthy-ori-3-1 normal thyroid cells, Nthy-ori-3-1.
Setting [9] is: Homo sapiens, BCPAP, B-CPAP, MTT, 24 h, concentration required to inhibit cell proliferation by 50%, mean ± SD, read-out: CC50.
Where [10] appears, read: K-1, MTT, 24 h, concentration required to inhibit cell proliferation by 50%, mean ± SD, read-out: CC50.

Where two headings read alike, the source gives them in different places.

Turning to `CC[C@@]1(O)C(=O)OCc2c1cc1n(c2=O)Cc2cc3ccccc3nc2-1` [Camptothecin, reference compound], the 50% cytotoxic concentration (CC50) in data set [1] (setting [6]) is 0.01 ± 0.02 µM; in data set [2] (setting [7]), 0.017 ± 0.003 µM; in data set [3] (setting [9]) it was 0.03 µM. Also, the CC50 at 24 h in “MTT cell viability assay” (MRC-5 lung fibroblasts, MRC-5) was determined as 0.1 ± 0.03 µM; in “MTT cell viability assay” (setting [8]), 0.01 ± 0.02 µM.

Take `N#Cc1cc2cc(F)ccc2oc1=O` [2a, 6-Fluoro-2-oxo-2H-chromene-3-carbonitrile]: the CC50 in data set [1] (setting [6]), in data set [2] (setting [7]), in data set [3] (setting [9]) and in data set [4] (setting [10]) was above 100 µM throughout. The CC50 at 24 h is above 100 µM in the data set “MTT cell viability assay” (MRC-5 lung fibroblasts, MRC-5) and above 100 µM in the data set “MTT cell viability assay” (setting [8]).

For `N#Cc1cc2cc(Cl)ccc2oc1=O` [2c, 6-Chloro-2-oxo-2H-chromene-3-carbonitrile], the CC50 in data set [1] (setting [6]), in data set [2] (setting [7]), in data set [3] (setting [9]) and in data set [4] (setting [10]) was above 100 µM throughout. The CC50 at 24 h in “MTT cell viability assay” (MRC-5 lung fibroblasts, MRC-5) was above 100 µM; in “MTT cell viability assay” (setting [8]) it was above 100 µM.

In the case of `CS(=O)(=O)c1cc2cc(Br)ccc2oc1=O` [2f, 6-Bromo-3-(methylsulfonyl)-2H-chromen-2-one], the CC50 in data set [1] (setting [6]), in data set [2] (setting [7]), in data set [3] (setting [9]) and in data set [4] (setting [10]) was above 100 µM throughout. Besides, the CC50 at 24 h in “MTT cell viability assay” (MRC-5 lung fibroblasts, MRC-5) is above 100 µM; in “MTT cell viability assay” (setting [8]), above 100 µM.

Regarding `CCOC(=O)c1cc2cc(Br)ccc2oc1=O` [2d, Ethyl 6-bromo-2-oxo-2H-chromene-3-carboxylate], the CC50 in data set [1] (setting [6]), in data set [2] (setting [7]), in data set [3] (setting [9]) and in data set [4] (setting [10]) was above 100 µM throughout. In addition, the CC50 at 24 h is above 100 µM in the data set “MTT cell viability assay” (MRC-5 lung fibroblasts, MRC-5) and above 100 µM in “MTT cell viability assay” (setting [8]).

Turning to `CCOC(=O)c1cc2cc(Br)cc(Br)c2oc1=O` [2g, Ethyl 6,8-dibromo-2-oxo-2H-chromene-3-carboxylate], the CC50 in data set [1] (setting [6]), in data set [2] (setting [7]), in data set [3] (setting [9]) and in data set [4] (setting [10]) was above 100 µM throughout. Besides, the CC50 at 24 h in the data set “MTT cell viability assay” (MRC-5 lung fibroblasts, MRC-5) is above 100 µM; in “MTT cell viability assay” (setting [8]), above 100 µM.

For `N#Cc1cc2cc(Br)ccc2oc1=O` [2e, 6-Bromo-2-oxo-2H-chromene-3-carbonitrile], the CC50 in data set [1] (setting [6]), in data set [2] (setting [7]), in data set [3] (setting [9]) and in data set [4] (setting [10]) was above 100 µM in each case. In addition, the 50% cytotoxic concentration (CC50) at 24 h is above 100 µM in “MTT cell viability assay” (MRC-5 lung fibroblasts, MRC-5) and above 100 µM in “MTT cell viability assay” (setting [8]).

For the compound `CCOC(=O)c1cc2cc(I)cc(I)c2oc1=O` [2i, Ethyl 6,8-diiodo-2-oxo-2H-chromene-3-carboxylate], the cytotoxic concentration (CC50) in data set [1] (setting [6]), in data set [2] (setting [7]), in data set [3] (setting [9]) and in data set [4] (setting [10]) was above 100 µM throughout. The CC50 at 24 h in “MTT cell viability assay” (MRC-5 lung fibroblasts, MRC-5) is above 100 µM; in the data set “MTT cell viability assay” (setting [8]), above 100 µM.

As to `O=C(O)c1cc2cc(I)cc(I)c2oc1=O` [2j, 6,8-diiodo-2-oxo-2H-chromene-3-carboxylic Acid], the CC50 in data set [1] (setting [6]), in data set [2] (setting [7]), in data set [3] (setting [9]) and in data set [4] (setting [10]) was above 100 µM in each case. Further, the CC50 at 24 h in “MTT cell viability assay” (MRC-5 lung fibroblasts, MRC-5) is above 100 µM; in “MTT cell viability assay” (setting [8]), above 100 µM.

Consider “Ethyl 6-fluoro-2-oxo-2H-chromene-3-carboxylate [2b]”, for which the CC50 (in data set [1]; in data set [2]; in data set [3]; in the data set with MRC-5 lung fibroblast; in data set [4]; in data set [5]) was above 100 µM each time.

For orientation: CC50 means the concentration that lowers cell viability or growth by half.
